# Laboratory results published in patent US20110212235A1, “ANTIMICROBIAL SALT SOLUTIONS FOR CHEESE PROCESSING APPLICATIONS” (priority 2006, published 2011).
# Assays:
# Type in all cases: cell-based
# [1] = tested on: wild type coliforms from cheese plant brine; assay: Coliforms procedure in cheese brine or buffered solution
# Procedure: (§1) In the present example, cultures of various microorganisms native to actual process brines used in cheese manufacture were obtained from a cheese plant. The cultures of yeast, mold, and coliforms were grown and used to test the efficacy of various antimicrobial additives in blue cheese brines. Organism cultures included four different types of yeast (three distinct while yeast cultures and a pink yeast), a black mold culture, a coliform culture, a culture of mixed green mold and yeast that were not separated, and a culture that was identified by the cheese plant as heterofermentative lactic acid bacteria, although no actual identification of the strain was carried out.
# Coliforms Procedure: • 1. Inoculate a separate tube containing 10 ml of Brain Heart Infusion (BHI) broth for each wild type coliforms 1 and 2. Incubate for 24+/−2 hours at 35° C.+/−2° C. • 2. Assume growth to be 10^9 cfu/ml. Since two cultures are being used, combine 5.5 ml of each culture added to 99 ml of cold Butterfield's Phosphate Buffered Water (PBW) to obtain 10^8 cfu/ml. • 3. Plate serial ten-fold dilutions of the culture to get the starting count of the inoculum on Violet Red Bile Agar (VRBA). • 4. Add 1 ml of the diluted cocktail to 100 ml of cold test solution. • 5. Determine the population at time 0 and 4 hours by plating serial dilutions to VRBA spread plates. • 6. Incubate the test solutions at 10° C.+/−2° C. for the duration of the experiment. • 7. Incubate the plates at 20° C.+/−2° C. for 72+/−2 hours. • 8. Count representative colonies and multiply by the dilution factor. Note: Each test solution should contain ˜10^8 cfu/ml.
# (§2) The brines were treated with different concentrations of octanoic acid and then challenged with a yeast cocktail (which included the pink and 3 different white mold types), the green mold+yeast combination, and coliforms.
# black mold = assay: “Mold” procedure, black mold
# Procedure: as §1
# (§3) “Mold” Procedure: • 1. From refrigerated stock mold cultures, take 1 ml from black mold dilution bottle added to 99 ml of cold Butterfield's Phosphate Buffered Water (PBW) to obtain 10^5 cfu/ml. • 2. Take 1 ml from green mold/white yeast mixture dilution bottle added to 99 ml of cold Butterfield's Phosphate Buffered Water (PBW) to obtain 10^6 cfu/ml. • 3. Plate serial dilutions of the cultures to get the starting count of the inoculum on Dichloran-Rose Bengal-Chloramphenicol Agar (DRBC). • 4. Add 1 ml of the diluted mold culture to 100 ml of cold test solution (do separately for each of the two mold cultures). • 5. Determine the population at time 0 and 4 hours. Spread plate serial dilutions to DRBC agar. • 6. Incubate the test solutions at 10° C.+/−2° C. for the duration of the experiment. • 7. Incubate the plates at 20° C.+/−2° C. for 5 days+/−2 hours. • 8. Count representative colonies and multiply by the dilution factor. Note: For black mold, each test solution should contain ˜10^3 cfu/ml. For green mold/white yeast mixture, each test solution should contain ˜10^4 cfu/ml.
# [2] = tested on: yeast cocktail (Raised, Rough and Flat white yeast and a pink yeast); assay: “Yeast” procedure, yeast cocktail
# Description: as §1, with “The cultures of yeast, mold, and coliforms were grown and used to test the efficacy of various antimicrobial additives in blue cheese brines.” left out
# (§4) “Yeast” Procedure: • 1. Inoculate a separate tube containing 10 ml of Brain Heart Infusion (BHI) broth for each wild type (Raised, Rough and Flat white yeast along with a single pink yeast). Incubate for 5 days at 26° C.+/−2° C. • 2. Assume growth to be 10^7 cfu/ml. Since 4 cultures are being used, combine 2.75 ml of each culture added to 99 ml of cold Butterfield's Phosphate Buffered Water (PBW) to obtain 10^6 cfu/ml of yeast cocktail. • 3. Plate serial dilutions of the culture to get the starting count of the inoculum on Dichloran-Rose Bengal-Chloramphenicol Agar (DRBC). • 4. Add 1 ml of the diluted cocktail to 100 ml of cold test solution. • 5. Determine the population at time 0 and 4 hours. Spread plate serial dilutions to DRBC agar. • 6. Incubate the test solutions at 10° C.+/−2° C. for the duration of the experiment. • 7. Incubate the plates at 20° C.+/−2° C. for 5 days+/−2 hours. • 8. Count representative colonies and multiply by the dilution factor. Note: Each test solution should contain ˜10^4 cfu/ml.
# as §2
# [3] = tested on: Uncharacterized microorganisms cultured from raw ground beef; assay: Total plate count challenge of 24% NaCl brine with ground beef organisms; details: after 4 hours in 24% NaCl brine at −5° C.
# Procedure: Tests were run to determine the effectiveness of formulas against organisms other than L. monocytogenes. […] The test solutions were inoculated with the ground beef organism culture and incubated for 4 hours at −5° C. before plating.
# [4] = tested on: wild type coliforms from cheese plant brine; assay: Coliforms procedure in cheese brine or buffered solution; remark: listed apart in the source
# [5] = tested on: green mold/white yeast mixture; assay: “Mold” procedure, green mold/white yeast mixture; details: 500 ppm in mozzarella brine
# Procedure: as §1, §3
# Screening tests identified octanoic acid as a promising antimicrobial additive for salt brines. Table 16 gives results of a challenge test run on actual blue cheese and mozzarella process brine samples sent from a cheese plant. The brines were treated with different concentrations of octanoic acid and then challenged with a yeast cocktail (which included the pink and 3 different white mold types), the green mold+yeast combination, and coliforms. […] The plate counts listed parenthetically as (est) were too numerous to count and were estimated.
# L. monocytogenes biofilm = assay: L. mono biofilm challenge in hot dog plant chill brine at −20° C.; details: for L. mono biofilm count, 1 hour: 1 hour at −20° C.; for L. mono biofilm count, 1 hour / L. mono biofilm count, 24 hours: hot dog plant chill brine with cooked turkey added; for L. mono biofilm count, 24 hours: 24 hours at −20° C.
# Procedure: Biofilms can provide a haven for pathogens, increasing their resistance to antimicrobial treatments, and thereby providing another possible source of food contamination. Tests were run to see if some embodiments were effective against a L. monocytogenes biofilm. Challenge tests were run according to the procedure below. Test solutions were prepared from a sample of hot dog plant chill brine which was treated with various levels of the alcohol ethoxylate surfactant. Cooked turkey was added to the test solution before inoculation to simulate a worst case “dirty” brine with a high degree of organic load.
# 1. Inoculate five cultures, L. monocytogenes H2446 (CDC Global Standard), Scott A-serotype 4b, 12243-serotype 1/2a, WP1 and WP4 in 10 ml Brain Heart Infusion broth (BHI). Incubate the tubes for 7 days at 10° C.+/−2° C. 2. Aseptically dispense 50 ml of sterile Tryptic Soy Broth (TSB)+0.6% Yeast Extract (YE) into sterile disposable 50 ml conical shaped plastic tubes. Make enough tubes for each time point. 3. Aseptically drop one coupon into the broth in each tube. 4. Make a cocktail of the five cultures and add 0.1 ml into each tube. Incubate the tubes for 7 days at 7° C.+/−2° C. 5. Dispense 40 ml of antimicrobial salt solutions containing sterile phosphate buffer into 50 ml plastic tubes. 6. After biofilm has grown, aseptically remove coupon and rinse each side for 5 seconds with sterile distilled water to remove unattached cells. 7. Aseptically drop each rinsed coupon into the antimicrobial salt solution tube and incubate for appropriate time (1 hour and 24 hour) at −20° C.+/−2° C. 8. Aseptically add 45 ml of sterile phosphate buffer (PBW) to 50 ml conical shaped plastic tubes along with 10 sterile glass beads. 9. After incubate time is complete, aseptically move the coupon from the antimicrobial salt solution to the sterile (PBW) solution containing beads. 10. Shake the tube with glass beads for about 2 minutes to remove attached cells. 11. Plate the cells in the PBW solution on TSA+0.6% YE using appropriate dilutions and incubate at 20° C. for 72+/−2 hours. 12. Plate the antimicrobial salt solution on TSA+0.6% YE using appropriate *dilutions and incubate 20° C. for 72+/−2 hours. *Please make note: The first dilution should take place in 9 ml DE Neutralizing Buffer. After incubation, count typical colonies and record results to cfu/g.
# White Yeast = assay: Yeast challenge, white yeast; details: after 4 hours in mozzarella cheese brine; Table 19
# Procedure: as §4
# (§5) In order to determine if the effect of the additive was repeatable, more challenge tests were run on samples of process brine. […] In this test the solutions were challenged with two distinct yeast (a white and a pink) types and coliforms from the samples sent by the cheese plant.
# Pink Yeast = assay: Yeast challenge, pink yeast; details: after 4 hours in mozzarella cheese brine; Table 19
# Procedure: as §4, §5
# L. monocytogenes [6] = assay: L. monocytogenes cocktail challenge of surfactant/salt solutions at 2° C.; details: after 4 hours in solution at 2° C.; Table 2, different salts and salt concentrations
# Procedure: Tests were generally run according to the following procedure:
# (§6) 1. Inoculate a separate tube containing approximately 10 ml of Brain Heart infusion (BHI) broth with the following L. monocytogenes strains: H2446 (CDC Global Standard), Scott A (serotype 4b), 12243 (serotype 1/2a), and two strains isolated from the environment of a cooked meat and poultry facility, designated WP1, and WP4. Incubate the tubes at least 5 days at 7-10° C.+/−2° C. 2. Assume the growth to be 10^9 cfu/ml. Serially dilute each culture in cold (˜7° C.). Butterfield's Phosphate Buffered Water (PBW) to 10^8 cfu/ml (1:10). Since five cultures of L. monocytogenes are being used as a cocktail, begin the dilution series using 2.20 ml of each culture added to 99 ml of PBW. 3. Plate (−6, −7, −8) the diluted culture to get the starting count of the inoculum on Modified Oxford medium (MOX) using a thin agar overlay (TAL) technique (overlay with Trypticase Soy Agar [TSA]) to revive injured cells. 4. Add 1 ml of the diluted cocktail to 100 ml of cold test solution. 5. Mix the solutions well. 6. Determine the L. monocytogenes population at time 0 and 4 hours. Plate −1 (0.1 ml on 1 plate), −2, −3, and −4 dilutions using spread plates on MOX TAL with TSA. 7. Incubate the test solutions at test temperature for the duration of the experiment. 8. Incubate the MOX TAL with TSA plates at 20° C.+/−2° C. for 72+/−3 hours. Count representative colonies, which are black, and multiply by the dilution factor.
# L. monocytogenes [7] = assay: L. monocytogenes challenge in beef plant chill brine at 4° C.; details: after 4 hours at 4° C.; surfactant added to beef plant brine, approximately 17% sodium chloride
# Procedure: as §6
# Several tests were carried out to determine the effectiveness of embodiments according to the invention in meat processing chill brines. In one experiment, brine was taken at the end of a production week from a brine chiller used in a ready to eat, cooked beef production line. The sodium chloride concentration in this brine was approximately 17%. Samples of the brine with and without added surfactant were inoculated with a cocktail of L. monocytogenes as per the procedure described above, incubated at 4° C. for four hours, and then plated to determine L. monocytogenes survival.
# [8] = after 4 hours in blue cheese brine taken before or after brining cheese wheels, Table 22
# [9] = after 4 hours in buffer of 375 ppm acetic acid and 525 ppm sodium acetate, pH 4.74
# [10] = about 250 ppm in blue cheese brine
compound,measurement,setting,value
"CCCCCCCC(=O)O [250 ppm octanoic acid (after cheese), octanoic acid]",Coliform count,[1]; [8],<10 cfu/mL
same,Black Mold count,black mold; [8],<10 cfu/mL
same,Yeast Cocktail count,[2]; [8],<10 cfu/mL
sodium salt of sulfonated oleic acid,Total plate count,[3],5.2 × 10^3 cfu/mL
alcohol ethoxylate [800 ppm alcohol ethoxylate],Total plate count,[3],<10 cfu/mL
"[Cl-].[Na+] [24% NaCl, sodium chloride, reference compound]",Black Mold count,black mold; [9],660 cfu/mL
same,Yeast Cocktail count,[2]; [9],"6,600 cfu/mL"
same,Coliform count,[4]; [9],"11,000 cfu/mL"
"CCCCCCCC(=O)O [octanoic acid, octanoic (caprylic) acid]",log kill of coliform,[1]; [10],~3 log
same,log kill of mold,black mold; [10],~3 log
same,log reduction in the yeast+mold count,[5],2 log
same,log kill of one of the yeast cultures,[2]; 250 ppm in mozzarella brine (so in the source),> 3.76 log
same,log kill of yeast,[2]; [10],~3 log
same,log reduction in the coliform count,[4]; 500 ppm in mozzarella brine,2 log
same,log kill of coliforms,"[4]; mozzarella brine, Table 19",~2 log
alcohol ethoxylate [15 ppm alcohol ethoxylate],"L. mono biofilm count, 1 hour",L. monocytogenes biofilm,"5,000 cfu/coupon"
same,"L. mono biofilm count, 24 hours",L. monocytogenes biofilm,5600 cfu/coupon
"CCCCCCCC(=O)O [1250 ppm octanoic acid, octanoic acid]",White Yeast count,White Yeast,<10 cfu/mL
same,Pink Yeast count,Pink Yeast,<10 cfu/mL
same,Coliform count,"[4]; after 4 hours in mozzarella cheese brine, Table 19",1.2 × 10^3 cfu/mL
"CCCCCCCC(=O)[O-].[Na+] [70 ppm Na Octanoate, sodium octanoate]",Black Mold count,black mold; [9],510 cfu/mL
same,Yeast Cocktail count,[2]; [9],"7,500 cfu/mL"
same,Coliform count,[4]; [9],"12,000 cfu/mL"
nonylphenolethoxylate [800 ppm nonylphenolethoxylate],Total plate count,[3],40 cfu/mL
"decyl alcohol ethoxylate, POE-6 [800 ppm decyl alcohol ethoxylate, POE-6]",Total plate count,[3],10 cfu/mL
alcohol ethoxylate [50 ppm alcohol ethoxylate],L. mono count,L. monocytogenes [6],1.9 × 10^5 cfu/mL
same,"L. mono biofilm count, 1 hour",L. monocytogenes biofilm,10-100 cfu/coupon
same,"L. mono biofilm count, 24 hours",L. monocytogenes biofilm,<10 cfu/coupon
same,log kill of the biofilm within 1 hour,"L. monocytogenes biofilm; very “dirty” brine, −20° C., 1 hour",> 2 log
same,log kill of the biofilm after 24 hours,"L. monocytogenes biofilm; very “dirty” brine, −20° C., 24 hours",> 3 log
"CCCCCCCC(=O)[O-].[Na+] [35 ppm Na Octanoate, sodium octanoate]",Black Mold count,black mold; [9],710 cfu/mL
same,Yeast Cocktail count,[2]; [9],"9,000 cfu/mL"
same,Coliform count,[4]; [9],"7,000 cfu/mL"
"CCCCCCCC(=O)[O-].[Na+] [140 ppm Na Octanoate, sodium octanoate]",Black Mold count,black mold; [9],630 cfu/mL
same,Yeast Cocktail count,[2]; [9],"10,000 cfu/mL"
same,Coliform count,[4]; [9],"7,700 cfu/mL"
sodium olefin sulfonate [50 ppm sodium olefin sulfonate],L. mono count,L. monocytogenes [6],1.8 × 10^5 cfu/mL
same,L. mono count,L. monocytogenes [7],10 cfu/mL
alcohol ethoxylate [25 ppm alcohol ethoxylate],"L. mono biofilm count, 1 hour",L. monocytogenes biofilm,3500 cfu/coupon
same,"L. mono biofilm count, 24 hours",L. monocytogenes biofilm,250 cfu/coupon
